Measurements: patent publication US20220144812A1, “QUINOLINE DERIVATIVES AND THEIR USE FOR THE TREATMENT OF CANCER” (Epizyme, Inc., priority 2019, published 2022)
Like-named read-outs stand apart in the source and are kept apart here.

How the values were obtained:
EP300 (P300(1048-1664)) = target: T1, EP300 (P300(1048-1664)) (Homo sapiens, UniProt Q09472); test: Biochemical assay for EP300, SAMDI; details: EP300, SAMDI; read-out: EP300 Biochemistry IC50
T1 construct: P300(1048-1664)
T1 sequence (Q09472 1048-1664): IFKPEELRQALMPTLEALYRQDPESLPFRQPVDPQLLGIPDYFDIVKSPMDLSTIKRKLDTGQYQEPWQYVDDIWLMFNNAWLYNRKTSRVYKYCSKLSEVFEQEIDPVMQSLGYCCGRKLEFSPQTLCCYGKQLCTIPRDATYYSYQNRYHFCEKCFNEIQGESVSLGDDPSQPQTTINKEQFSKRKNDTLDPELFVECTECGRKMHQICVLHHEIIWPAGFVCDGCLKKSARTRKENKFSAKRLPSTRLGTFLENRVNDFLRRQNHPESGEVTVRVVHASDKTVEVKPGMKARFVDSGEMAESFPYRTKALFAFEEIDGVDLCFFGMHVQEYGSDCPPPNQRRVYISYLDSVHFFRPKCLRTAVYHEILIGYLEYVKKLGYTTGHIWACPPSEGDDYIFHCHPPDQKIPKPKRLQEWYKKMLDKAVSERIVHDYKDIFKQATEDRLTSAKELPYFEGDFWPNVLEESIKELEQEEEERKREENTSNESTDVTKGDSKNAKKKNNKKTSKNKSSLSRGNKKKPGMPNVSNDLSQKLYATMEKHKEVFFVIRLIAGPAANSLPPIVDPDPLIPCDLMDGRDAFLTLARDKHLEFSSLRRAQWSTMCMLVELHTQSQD
Description: The following example describes materials and methods relating to a biochemical assay for EP300. IC50 values (micromolar (μM)) are summarized in Table 1, Table 2, and Table 3 under the column labeled: “EP300 Biochemistry IC50 (micromolar).”

CREBBP (1084-1701) = target: T2, CREBBP (1084-1701) (Homo sapiens, UniProt Q92793); test: Biochemical assay for CREBBP (1084-1701), SAMDI; details: SAMDI, read-out: CREBBP Biochemistry IC50
T2 construct: measured in the following biochemical assay using CREBBP (1084-1701); purchased
T2 sequence (Q92793 1084-1701): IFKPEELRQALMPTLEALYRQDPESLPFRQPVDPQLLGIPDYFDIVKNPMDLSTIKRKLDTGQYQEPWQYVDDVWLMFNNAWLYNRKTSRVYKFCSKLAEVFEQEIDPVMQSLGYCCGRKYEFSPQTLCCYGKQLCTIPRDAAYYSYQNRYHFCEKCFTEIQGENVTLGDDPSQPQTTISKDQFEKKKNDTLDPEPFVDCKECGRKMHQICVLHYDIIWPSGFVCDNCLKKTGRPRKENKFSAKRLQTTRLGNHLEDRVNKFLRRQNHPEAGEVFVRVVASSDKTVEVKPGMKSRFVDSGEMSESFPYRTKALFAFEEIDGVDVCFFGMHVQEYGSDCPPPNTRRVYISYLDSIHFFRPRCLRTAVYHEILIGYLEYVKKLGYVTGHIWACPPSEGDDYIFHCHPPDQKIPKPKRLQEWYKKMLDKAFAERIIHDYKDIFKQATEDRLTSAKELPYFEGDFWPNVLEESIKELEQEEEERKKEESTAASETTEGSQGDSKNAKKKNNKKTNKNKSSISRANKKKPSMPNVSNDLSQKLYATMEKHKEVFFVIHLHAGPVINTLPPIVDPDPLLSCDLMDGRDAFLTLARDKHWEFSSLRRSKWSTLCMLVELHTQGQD
Summary of the method: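 CREBBP (1084-1701) preincubated with compound 30 min at RT, then substrate mix (biotin-H3 11-25 K14R/K23R peptide, acetyl-CoA) added for 30 min at RT. Reaction stopped with formic acid, neutralised with sodium bicarbonate. Peptide acetylation read by SAMDI mass spectrometry to derive IC50.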

647V cells = test: High throughput proliferation (HTP) assay; assay type: cell-based; details: Homo sapiens, 647-V, high throughput proliferation, read-out: CREBBP HTP IC50
Summary of the method: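 Exponentially growing 647V cells in DMEM with 15% FBS were treated in triplicate with increasing compound concentrations at 37° C, 5% CO2. Viable cell number was read by CellTiter-Glo luminescence on day 7; IC50 in micromolar.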

[1] = system: H3K18Ac in HB-CLS-2 cells; test: H3K18AC in-cell western (ICW) assay; assay type: cell-based; details: H3K18Ac in-cell western, read-out: CREBBP ICW IC50
Summary of the method: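 HB-CLS-2 cells seeded 16–24 hours before 2 hr compound treatment at 37° C, 5% CO2, then methanol-fixed. H3K18Ac detected with rabbit monoclonal primary (overnight, 4° C) and 800CW anti-rabbit secondary; DRAQ5 stained DNA. Plates imaged at 700 and 800 nm for integrated intensity; IC50 in μM.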

| IC50 (EP300 (P300(1048-1664))) [nM] | IC50 (CREBBP (1084-1701)) [nM] | IC50 [1] [nM] | IC50 ([1]; HB-CLS-2 cells) [nM] | Compound | IC50 (647V cells) [nM] | IC50 (647V cells; 647V cells) [nM] |
| --- | --- | --- | --- | --- | --- | --- |
| 20000 | 32000 | 11000 | – | CCn1ncc(CN(C)C(=O)c2nc(-c3cc(C(=O)NC4CCN(C)CC4)nn3C)nc3ccc(Cl)cc23)c1C [Compound 160] | 5100 | – |
| 68 | 140 | 1700 | – | CCn1ncc(CN(C)C(=O)c2nc(-c3ccc(OCCCN(C)C(=O)OC(C)(C)C)c(C)c3Cl)nc3ccc(Cl)cc23)c1C [Compound 93] | 1200 | – |
| 13000 | 58000 | 14000 | – | CCn1ncc(CN(C)C(=O)c2nc(-c3cn(C)cn3)nc3ccc(Cl)cc23)c1C [Compound 170] | 6900 | – |
| 8000 | 18000 | 13000 | – | CCn1ncc(CN(C)C(=O)c2nc(N3CCc4[nH]cnc4C3)nc3ccc(Cl)cc23)c1C [Compound 167] | 11000 | – |
| 4.1 | 12 | 58.3 | – | CCn1ncc(CN(C)C(=O)c2nc(-c3cc4c(N)n[nH]c4cc3C)nc3ccc(Br)cc23)c1C [Compound 535] | 58.1 | – |
| 23 | 32 | – | 240 | CCc1cc(-c2nc(C(=O)N(C)Cc3cnn(CC)c3C)c3cc(Cl)ccc3n2)ccc1NC1CCOCC1 [Compound 415] | – | 240 |
| 180 | 44 | 290 | – | CCn1ncc(CN(C)C(=O)c2nc(-c3ccc(OCCNC(C)=O)c(Cl)c3)nc3ccc(Cl)cc23)c1C [Compound 35] | 220 | – |
| 9.3 | 25.8 | 65.5 | – | CCn1ncc(CN(C)C(=O)c2cc(-c3cc(C4=NCCN4)n(C)n3)nc3ccc(Cl)cc23)c1C [Compound 582] | 122 | – |
| 661 | 846 | 1630 | – | CCn1ncc(CN(C)C(=O)c2cc(-c3ccc(N4CC(N(C)C)C4)c(C)n3)nc3ccc(Cl)cc23)c1C [Compound 497] | 2560 | – |
| 9.3 | 62.9 | 225 | – | CCc1ncc(CN(C)C(=O)c2cc(-c3cc4n[nH]cc4cn3)nc3ccc(COC)cc23)n1C [Compound 510] | 465 | – |
| 383 | 107 | 1320 | – | CCc1noc(C(C)N(C)C(=O)c2nc(-c3cc4c(NC)[nH]nc4cc3C)nc3ccc(Cl)cc23)c1C (centres unmarked) [Compound 622] | 2300 | – |
| 4400 | 3200 | 2600 | – | CCn1ncc(CN(C)C(=O)c2nc(-c3ccc(OCCCNC)cc3)nc3ccc(Cl)cc23)c1C [Compound 110] | 1400 | – |
| 1.5 | 4.27 | 39.3 | – | CCn1ncc(CN(C)C(=O)c2nc(-c3ccc4n[nH]c(NC)c4c3)nc3ccc(Cl)cc23)c1C [Compound 558] | 76.3 | – |
| 30.2 | 44.9 | 143 | – | CCn1ncc(CN(C)C(=O)c2cc(-c3ccc(NC4CN(CC#N)C4)c(C)n3)nc3ccc(Cl)cc23)c1C [Compound 601] | 72.6 | – |
| 10.4 | 20.7 | 137 | – | CCn1ncc(CN(C)C(=O)c2cc(-c3ccc(NCCNS(C)(=O)=O)c(C)n3)nc3ccc(Cl)cc23)c1C [Compound 529] | 238 | – |
| 44000 | 54000 | 16000 | – | CCn1ncc(CN(C)C(=O)c2nc(-c3cc(C(=O)NCCN4CCCC4)n(Cc4ccc(OC)cc4)n3)nc3ccc(Cl)cc23)c1C [Compound 177] | 3400 | – |
| 36.7 | 50.3 | 269 | – | CCn1ncc(CN(C)C(=O)c2nc(-c3ccc(OCCNC)c(Cl)c3)nc3ccc(C(F)F)cc23)c1C [Compound 441] | 216 | – |
